Usually IC50 stands for the concentration needed to halve the response being measured.

These results are taken from patent US9532984B2, “Therapeutic combination for cancer treatment” (The Translational Genomics Research Institute, priority 2011, dated 2017).

Experiment [1] has as its system SW48 KRas Kras G12D cells. The experiment can be described thus: Cancer cell growth inhibition (cell proliferation), SW48 Kras G12D. As to conditions: Homo sapiens. It is filed as cell-based. On the procedure: (§1) The experiments involved a broad testing of multiple concentrations of metformin, phenformin and pioglitazone against fixed concentrations of the autophagy inhibitors. […] Similar tests were carried out in mouse models.

Experiment [2] deals with BxPC-3 human pancreatic tumor xenograft. Here is the method:
BxPC-3 is a human pancreatic cancer cells obtained from the American Type Culture Collection and maintained as recommended. Female mice were inoculated subcutaneously in the right flank with 0.1 ml of a 50% RPMI/50% Matrigel™ (BD Biosciences, Bedford, Mass.) mixture containing a suspension of BxPC-3 human pancreatic tumor cells (approximately 5×10^6 cells/mouse). RPMI, a bicarbonate buffering system, and Matrigel™, a gelatinous protein mixture, support growth of many types of cultured cells including human normal and neoplastic leukocytes.
When tumors reached approximately 135 mg, mice were randomized into treatment groups. Body weights were recorded when the mice were randomized into groups and were weighted twice per week (on Study Days 3 and 7 for each cycle) thereafter in conjunction with tumor measurements. Group 1 mice were treated with vehicle control containing 5% DMA, 10% propylene glycol, 20% PEG 400, and 65% sterile water. Group 2 mice were treated with metformin only. Group 3 mice were treated with autophagy inhibitor in combination with metformin. Treatment began on the day of randomization. Metformin was delivered orally ad libitum in water. The autophagy inhibitor was delivered daily for 12 days in a vehicle of 5% DMA, 10% propylene glycol, 20% PEG 400, and 65% sterile water.

In experiment [3] the test system is SW48 KRas Kras G12V cells. The experiment can be described thus: Cancer cell growth inhibition (cell proliferation), SW48 Kras G12V. In kind it is cell-based. The note with it: Homo sapiens. On the procedure: as §1
The next experiment has as its system SW48 KRas Kras WT cells. In words: Cancer cell growth inhibition (cell proliferation), SW48 Kras WT. In kind it is cell-based. As to conditions: Homo sapiens. Here is the method:
as §1

`CN(C)C(=N)N=C(N)N` [Metformin, metformin]: the IC50 in experiment [1] (no autophagy inhibitor) is 1300 µM; in experiment [1] (with fixed Mefloquine 1 μM), < 20 µM; in experiment [1] (with fixed Mefloquine 3 μM) it was 900 µM; in experiment [1] (with fixed Primaquine 1 μM), 100 µM; in experiment [1] (with fixed Primaquine 3 μM) it was > 10000 µM; in experiment [1] (with fixed Quinicrine 1 μM), 1100 µM. The IC50 in experiment [1] (with fixed Quinicrine 3 μM) was > 10000 µM; in experiment [3] (no autophagy inhibitor) it was 430 µM; in experiment [3] (with fixed Mefloquine 1 μM), < 20 µM; in experiment [3] (with fixed Mefloquine 3 μM) it was 40 µM; in experiment [3] (with fixed Primaquine 1 μM), 80 µM; in experiment [3] (with fixed Primaquine 3 μM), 320 µM. In addition, the IC50 in experiment [3] (with fixed Quinicrine 1 μM) is < 20 µM; in experiment [3] (with fixed Quinicrine 3 μM), 500 µM; with SW48 KRas Kras WT cells (no autophagy inhibitor), 1000 µM; in the experiment with SW48 KRas Kras WT cells (with fixed Mefloquine 1 μM) it was < 20 µM; in the experiment with SW48 KRas Kras WT cells (with fixed Mefloquine 3 μM) it was 600 µM; in the experiment on SW48 KRas Kras WT cells (with fixed Primaquine 1 μM) it was 100 µM. Moreover, the IC50 with SW48 KRas Kras WT cells (with fixed Primaquine 3 μM) is 2600 µM; in the experiment on SW48 KRas Kras WT cells (with fixed Quinicrine 1 μM), 1100 µM; with SW48 KRas Kras WT cells (with fixed Quinicrine 3 μM), 4800 µM. The tumor growth entry in experiment [2] (after day 18, FIG. 1) is given as “continued although at a lower rate than that in Group 1 control”. Moreover, the tumor growth rate entry in experiment [2] (day 8 to about day 18, compared among groups, FIG. 1) is listed as “lowest tumor growth rate”. Further, the tumor size regressed in experiment [2] (within about one week, after day 18) is ~20 % by weight.
For `[H]/N=C(/N)N/C(=N/[H])NCCc1ccccc1` [Phenformin, phenformin], the IC50 was determined as 10.7 µM in experiment [1] (no autophagy inhibitor); 19.5 µM in experiment [1] (with fixed Chloroquine 1 μM); 16.2 µM in experiment [1] (with fixed Chloroquine 3 μM); 13 µM in experiment [1] (with fixed Mefloquine 1 μM); 23.4 µM in experiment [1] (with fixed Quinicrine 1 μM); 33.1 µM in experiment [1] (with fixed Quinicrine 3 μM). The IC50 in experiment [3] (no autophagy inhibitor) stood at 16.2 µM; in experiment [3] (with fixed Chloroquine 1 μM) it was 5.8 µM; in experiment [3] (with fixed Chloroquine 3 μM), 4.5 µM; in experiment [3] (with fixed Mefloquine 1 μM), 1.8 µM; in experiment [3] (with fixed Quinicrine 1 μM), 6.5 µM; in experiment [3] (with fixed Quinicrine 3 μM), 4.3 µM. Further, the IC50 was 7.2 µM with SW48 KRas Kras WT cells (no autophagy inhibitor); 23.4 µM with SW48 KRas Kras WT cells (with fixed Chloroquine 1 μM); 11.7 µM with SW48 KRas Kras WT cells (with fixed Chloroquine 3 μM); 17.2 µM in the experiment on SW48 KRas Kras WT cells (with fixed Mefloquine 1 μM); 11 µM in the experiment with SW48 KRas Kras WT cells (with fixed Quinicrine 1 μM); 15.8 µM in the experiment on SW48 KRas Kras WT cells (with fixed Quinicrine 3 μM).
For `CCc1ccc(CCOc2ccc(CC3SC(=O)NC3=O)cc2)nc1` (stereo not drawn) [Pioglitizone, pioglitazone], the IC50 in experiment [1] (no autophagy inhibitor) is 183 µM; in experiment [1] (with fixed Mefloquine 3 μM), 9.7 µM; in experiment [3] (no autophagy inhibitor) it was > 250 µM; in experiment [3] (with fixed Mefloquine 3 μM), 0.4 µM; in the experiment with SW48 KRas Kras WT cells (no autophagy inhibitor) it was 154 µM; in the experiment with SW48 KRas Kras WT cells (with fixed Mefloquine 3 μM), 8.1 µM.
